As usually defined, the inhibition is the drop in the measured response relative to a control, in per cent. Broadly, the CC50 is the concentration at which the toxic effect on the cells reaches its halfway point. Low values mean harm at low concentration, high ones better tolerance by the cells.

The record followed here is patent publication US9540343B2 (Gilead Sciences, Inc., priority 2011, dated 2017).

Data set [1] has as its system HIV-IIIb. As to the kind of experiment: Test A: Antiviral assay in MT4 cells. Type of data set: cell-based, HIV-1. As to conditions: Human immunodeficiency virus 1, IIIB, MT4, 120 h, read-out: % inhibition at 2 μM, percent inhibition of virus-induced cell killing, from dose response curve at 2 uM drug; MT-4 cells infected with HIV-IIIb, 5 days, CellTiter-Glo. (In ATP-based viability assays light output follows the ATP content of the culture.)

Data set [2] in a line: in vitro. Particulars: human, uninfected MT-4 cells, CC50 (nM), same protocol as Test A, CellTiter-Glo. The procedure, abridged: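 Cytoprotection read-out: CellTiter-Glo chemiluminescence after 5 days at 37 °C of HIV-IIIb-infected MT-4 cells (m.o.i. 0.003) with compound in 10-point 3-fold dilutions, quadruplicate, 10% FBS. Cytotoxicity (CC50) measured identically without virus.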

Each structure is given as a SMILES string.

For `COCc1cn(CC(=O)N[C@@H](Cc2cc(F)cc(F)c2)c2ncccc2-c2ccc(F)c(C(N)=O)c2)nc1C(F)(F)F` [Example 361, (S)-5-(2-(2-(3,5-difluorophenyl)-1-(2-(4-(methoxymethyl)-3-(trifluoromethyl)-1H-pyrazol-1-yl)acetamido)ethyl)pyridin-3-yl)-2-fluorobenzamide], the inhibition at 2 µM in data set [1] amounted to 8%. The same molecule registered a CC50 at 5 days in data set [2] of more than 53200 nM.

As to `Cc1cc(=O)n(CC(=O)N[C@@H](Cc2cc(F)cc(F)c2)c2ncccc2-c2ccnc(C(N)=O)c2)c2ccccc12` [Example 362, (S)-2-(2-(3,5-difluorophenyl)-1-(2-(4-methyl-2-oxoquinolin-1(2H)-yl)acetamido)ethyl)-3,4′-bipyridine-2′-carboxamide], in data set [1], the inhibition at 2 µM was 23%. In data set [2], the 50% cytotoxic concentration (CC50) at 5 days was more than 53000 nM.

For `N#Cc1cn(CC(=O)N[C@@H](Cc2cc(F)cc(F)c2)c2ncccc2-c2ccc(F)c(C(N)=O)c2)nc1C(F)(F)F` [Example 363, (S)-5-(2-(1-(2-(4-cyano-3-(trifluoromethyl)-1H-pyrazol-1-yl)acetamido)-2-(3,5-difluorophenyl)ethyl)pyridin-3-yl)-2-fluorobenzamide], in data set [1], the inhibition at 2 µM was 2%. For the same molecule, in data set [2], the 50% cytotoxic concentration (CC50) at 5 days turned out to be 21900 nM.

Regarding `NC(=O)c1cc(-c2cccnc2[C@H](Cc2cc(F)cc(F)c2)NC(=O)Cn2nc(C(F)(F)F)c3c2C2CC2CC3(F)F)ccc1F` (stereo partly drawn) [Example 364, 5-(2-((1S)-1-(2-(4,4-difluoro-3-(trifluoromethyl)-5,5a,6,6a-tetrahydrocyclopropa[g]indazol-1(4H)-yl)acetamido)-2-(3,5-difluorophenyl)ethyl)pyridin-3-yl)-2-fluorobenzamide], the inhibition at 2 µM in data set [1] is 38%. Also, half-maximal cytotoxicity in data set [2] (CC50 at 5 days) was put at 3760 nM.

Take `O=C(Cc1c[nH]c2ccc(F)cc12)N[C@@H](Cc1cc(F)cc(F)c1)c1ncncc1-c1ccc(Cl)cc1` [Example 365, (S)—N-(1-(5-(4-chlorophenyl)pyrimidin-4-yl)-2-(3,5-difluorophenyl)ethyl)-2-(5-fluoro-1H-indol-3-yl)acetamide]: the inhibition at 2 µM in data set [1] amounted to 86%. Moreover, the CC50 at 5 days in data set [2] turned out to be 12500 nM.

As for `NC(=O)c1cc(-c2cccnc2[C@H](Cc2cc(F)cc(F)c2)NC(=O)Cn2nc(Br)nc2C2CC2)ccc1F` [Example 366, (S)-5-(2-(1-(2-(3-bromo-5-cyclopropyl-1H-1,2,4-triazol-1-yl)acetamido)-2-(3,5-difluorophenyl)ethyl)pyridin-3-yl)-2-fluorobenzamide], the inhibition at 2 µM in data set [1] came out at 6%. Besides, the 50% cytotoxic concentration (CC50) at 5 days in data set [2] is more than 53200 nM.

As for `Cc1cc2ccccc2n1CC(=O)N[C@@H](Cc1cc(F)cc(F)c1)c1ncccc1-c1ccc(F)c(C(N)=O)c1` [Example 367, (S)-5-(2-(2-(3,5-difluorophenyl)-1-(2-(2-methyl-1H-indol-1-yl)acetamido)ethyl)pyridin-3-yl)-2-fluorobenzamide], the inhibition at 2 µM in data set [1] was determined as 20%. In data set [2], this molecule came in with a CC50 at 5 days of 13400 nM.

For `NC(=O)c1cc(-c2cccnc2[C@H](Cc2cc(F)cc(F)c2)NC(=O)Cn2cnc3c(Cl)nccc32)ccc1F` [Example 368, (S)-5-(2-(1-(2-(4-chloro-1H-imidazo[4,5-c]pyridin-1-yl)acetamido)-2-(3,5-difluorophenyl)ethyl)pyridin-3-yl)-2-fluorobenzamide], the inhibition at 2 µM in data set [1] worked out at 2%. In data set [2], this molecule yielded a CC50 at 5 days of 47300 nM.

In the case of `CC1(C)CC(=O)c2c(C(F)(F)F)nn(CC(=O)N[C@@H](Cc3cc(F)cc(F)c3)c3ncccc3-c3ccc(F)c(C(N)=O)c3)c2C1` [Example 369, (S)-5-(2-(2-(3,5-difluorophenyl)-1-(2-(6,6-dimethyl-4-oxo-3-(trifluoromethyl)-4,5,6,7-tetrahydro-1H-indazol-1-yl)acetamido)ethyl)pyridin-3-yl)-2-fluorobenzamide], in data set [1], the inhibition at 2 µM stood at 5%. Moreover, in data set [2], the CC50 at 5 days was more than 53000 nM.

Turning to `NC(=O)c1cc(-c2cccnc2[C@H](Cc2cc(F)cc(F)c2)NC(=O)Cn2nc(C(F)F)c3c2C(=O)CCC3)ccc1F` [Example 370, (S)-5-(2-(1-(2-(3-(difluoromethyl)-7-oxo-4,5,6,7-tetrahydro-1H-indazol-1-yl)acetamido)-2-(3,5-difluorophenyl)ethyl)pyridin-3-yl)-2-fluorobenzamide], the inhibition at 2 µM in data set [1] was 33%. Besides, the 50% cytotoxic concentration (CC50) at 5 days in data set [2] stood at 22700 nM.

For `Nc1ncc(-c2cccnc2[C@H](Cc2cc(F)cc(F)c2)NC(=O)Cn2nc(C(F)F)c3c2C(F)(F)CCC3(F)F)cc1C(F)(F)F` [Example 371, (S)—N-(1-(6′-amino-5′-(trifluoromethyl)-3,3′-bipyridin-2-yl)-2-(3,5-difluorophenyl)ethyl)-2-(3-(difluoromethyl)-4,4,7,7-tetrafluoro-4,5,6,7-tetrahydro-1H-indazo-1-yl)acetamide], the inhibition at 2 µM in data set [1] was found to be 83%. Further, the CC50 at 5 days in data set [2] was determined as 7590 nM.

With `Cc1c(C#N)c(C(F)(F)F)nn1CC(=O)N[C@@H](Cc1cc(F)cc(F)c1)c1ncccc1-c1ccc(N(C)C)c(C(N)=O)c1` [Example 372, (S)-5-(2-(1-(2-(4-cyano-5-methyl-3-(trifluoromethyl)-1H-pyrazol-1-yl)acetamido)-2-(3,5-difluorophenyl)ethyl)pyridin-3-yl)-2-(dimethylamino)benzamide], in data set [1], the inhibition at 2 µM was 0%. In data set [2], half-maximal cytotoxicity (CC50 at 5 days) was put at 24000 nM.

Consider `COc1ccc2cccc(CC(=O)N[C@@H](Cc3cc(F)cc(F)c3)c3ncccc3-c3ccc(F)c(C#N)c3)c2c1` [Example 373, (S)—N-(1-(3-(3-cyano-4-fluorophenyl)pyridin-2-yl)-2-(3,5-difluorophenyl)ethyl)-2-(7-methoxynaphthalen-1-yl)acetamide], for which, in data set [1], the inhibition at 2 µM is 0%. Also, the midpoint of cytotoxicity in data set [2], the CC50 at 5 days, lay at 8140 nM.

Turning to `Cc1nc(C(F)(F)F)nn1CC(=O)N[C@@H](Cc1cc(F)cc(F)c1)c1ncccc1-c1ccc(F)c(C(N)=O)c1` [Example 374, (S)-5-(2-(2-(3,5-difluorophenyl)-1-(2-(5-methyl-3-(trifluoromethyl)-1H-1,2,4-triazol-1-yl)acetamido)ethyl)pyridin-3-yl)-2-fluorobenzamide], the inhibition at 2 µM in data set [1] came to 5%. Moreover, in data set [2], the 50% cytotoxic concentration (CC50) at 5 days is more than 53200 nM.

With `Nc1ccc(-c2cccnc2[C@H](Cc2cc(F)cc(F)c2)NC(=O)Cn2nc(C(F)F)c3c2C(F)(F)CCC3(F)F)cn1` [Example 375, (S)—N-(1-(6′-amino-3,3′-bipyridin-2-yl)-2-(3,5-difluorophenyl)ethyl)-2-(3-(difluoromethyl)-4,4,7,7-tetrafluoro-4,5,6,7-tetrahydro-1H-indazol-1-yl)acetamide], in data set [1], the inhibition at 2 µM was found to be 98%. Further, in data set [2], half-maximal cytotoxicity (CC50 at 5 days) was put at 15200 nM.

As to `Cc1c(C#N)c(C(F)(F)F)nn1CC(=O)N[C@@H](Cc1cc(F)cc(F)c1)c1ncccc1-c1ccc(F)c(C(N)=O)c1` [Example 376, (S)-5-(2-(1-(2-(4-cyano-5-methyl-3-(trifluoromethyl)-1H-pyrazol-1-yl)acetamido)-2-(3,5-difluorophenyl)ethyl)pyridin-3-yl)-2-fluorobenzamide], the inhibition at 2 µM in data set [1] stood at 2%. The molecule further returned a cytotoxic concentration (CC50) at 5 days in data set [2] of 29100 nM.

As to `N#Cc1cc(-c2cccnc2[C@H](Cc2cc(F)cc(F)c2)NC(=O)Cc2c[nH]c3ccc(F)cc23)ccn1` [Example 377, (S)—N-(1-(2′-cyano-3,4′-bipyridin-2-yl)-2-(3,5-difluorophenyl)ethyl)-2-(5-fluoro-1H-indol-3-yl)acetamide], the inhibition at 2 µM in data set [1] stood at 22%. Further, in data set [2], the half-maximal cytotoxic concentration (CC50) at 5 days stood at 18600 nM.

Take `CC(C)(C)OC(=O)N1CCc2c(C(F)(F)F)nn(CC(=O)N[C@@H](Cc3cc(F)cc(F)c3)c3ncccc3-c3ccc(F)c(C(N)=O)c3)c2C1` [Example 378, (S)-tert-butyl 1-(2-(1-(3-(3-carbamoyl-4-fluorophenyl)pyridin-2-yl)-2-(3,5-difluorophenyl)ethylamino)-2-oxoethyl)-3-(trifluoromethyl)-4,5-dihydro-1H-pyrazolo[3,4-c]pyridine-6(7H)-carboxylate]: the inhibition at 2 µM in data set [1] amounted to 5%. It took 17100 nM to reach half-maximal cytotoxicity in data set [2] (CC50 at 5 days).

Consider `O=C(Cn1nc(C(F)(F)F)c2c1C1CC1CC2)N[C@@H](Cc1cc(F)cc(F)c1)c1ncccc1-c1cnc2[nH]ccc2c1` (stereo partly drawn) [Example 379, N—((S)-1-(3-(1H-pyrrolo[2,3-b]pyridin-5-yl)pyridin-2-yl)-2-(3,5-difluorophenyl)ethyl)-2-(3-(trifluoromethyl)-5,5a,6,6a-tetrahydrocyclopropa[g]indazol-1(4H)-yl)acetamide], for which the inhibition at 2 µM in data set [1] came to 112%. The CC50 at 5 days in data set [2] came to 9240 nM.

For `NC(=O)c1cc(-c2cccnc2[C@H](Cc2cc(F)cc(F)c2)NC(=O)Cn2nc(C(F)F)c3c2C(F)(F)CCC3)ccc1F` [Example 380, (S)-5-(2-(1-(2-(3-(difluoromethyl)-7,7-difluoro-4,5,6,7-tetrahydro-1H-indazol-1-yl)acetamido)-2-(3,5-difluorophenyl)ethyl)pyridin-3-yl)-2-fluorobenzamide], the inhibition at 2 µM in data set [1] is 97%. Also, the 50% cytotoxic concentration (CC50) at 5 days in data set [2] turned out to be 18300 nM.

As for `NC(=O)c1cc(-c2cccnc2[C@H](Cc2cc(F)cc(F)c2)NC(=O)Cn2nc3c(c2C(F)(F)F)C(F)(F)C2CC32)ccc1F` (stereo partly drawn) [Example 381, 5-(2-((1S)-1-(2-(4,4-difluoro-3-(trifluoromethyl)-4,4-a,5,5a-tetrahydro-2H-cyclopropa[4,5]cyclopenta[1,2-c]pyrazol-2-yl)acetamido)-2-(3,5-difluorophenyl)ethyl)pyridin-3-yl)-2-fluorobenzamide], in data set [1], the inhibition at 2 µM amounted to 1%. This molecule also showed a 50% cytotoxic concentration (CC50) at 5 days in data set [2] of 24900 nM.

On to `NC(=O)c1cccc(-c2cccnc2[C@H](Cc2cc(F)cc(F)c2)NC(=O)Cn2cnc3c2CCCC3)c1` [Example 382, (S)-3-(2-(2-(3,5-difluorophenyl)-1-(2-(4,5,6,7-tetrahydro-1H-benzo[d]imidazol-1-yl)acetamido)ethyl)pyridin-3-yl)benzamide], for which the inhibition at 2 µM in data set [1] was found to be 85%. The molecule further had a 50% cytotoxic concentration (CC50) at 5 days in data set [2] of more than 39900 nM.
